Article PMC8347464, “Design, Synthesis, and In Vitro Antiproliferative Activity of Hydantoin and Purine Derivatives with the 4-Acetylphenylpiperazinylalkyl Moiety” (Materials, 2021)

How the values were obtained:
[1] = tested on: PC3 cells (human metastatic prostate cancer); experiment: MTT assay, PC3 cells; assay type: cell-based; conditions: for IC50: Homo sapiens, PC-3, MTT, 72 h, mean ± SD
Description: (§1) Primary and metastatic colon cancer (SW480, SW620), metastatic prostate cancer (PC3), and human immortal keratinocyte (HaCaT) cell lines and immortal microvascular endothelial cells (HMEC-1) were obtained from the American Type Culture Collection (ATCC, Rockville, USA) and cultured in recommended medium, namely, MEM (Biowest SAS, France) for the SW480 and SW620 cells, RPMI 1640 (Biowest SAS, Nuaillé, France) for PC3, DMEM (Biowest SAS, France) for HaCaT and MCDB 131 (PAN BioTech, Aidenbach, Germany) for HMEC-1. The SW480 and SW620 cell lines were initiated by A. Leibovitz et al. and derived from a human primary colon adenocarcinoma and lymph node metastasis of the same patient. respectively. PC3 cell cells were initiated from a bone metastasis of a human prostatic adenocarcinoma. HaCaT cells were obtained from adult human skin, while HMEC-1 cells were established from the dermis of a human neonate. Cells were cultured in recommended medium supplemented with 10% FBS (Biowest SAS, Nuaillé, France), penicillin (100 U/mL), streptomycin […] (Gibco Life Technologies, Waltham MA, USA) and incubated at 37 °C under 5% CO2. The culture medium of HMEC-1 cells was additionally supplemented with glutamine (1 mM) and microvascular growth supplement (5%) (MVGS; Gibco, USA). The cells were cultured until 80% confluency was reached, harvested by treatment with 0.25% trypsin 0.02% EDTA (Gibco Life Technologies, Waltham, MA, USA) and subsequently used for further experiments.
(§2) Cell viability was estimated using a conversion of 3-(4,5-dimethylthiazol-2-yl)-2,5-diphenyltetrazolium bromide salt (MTT) to insoluble formazan crystals by mitochondrial dehydrogenases, present in living cells. Cells were cultured in 96-well plates (l × 10^4 cells per well) and incubated for 24 h at 37 °C under 5% CO2. Next, the cells were treated with various concentrations of the tested compounds (ranging from 10 to 180 μM) and incubated for 72 h at 37 °C under 5% CO2. Untreated cells were used as the control. Next, the medium was removed, MTT solution (0.5 mg/mL) was added to each well, and the cells were incubated for 4 h at 37 °C under 5% CO2. After that, the obtained formazan crystals were dissolved in DMSO and isopropanol (1:1, v/v). The optical density of the dissolved crystals was measured at a wavelength of 570 nm using a UVM 340 reader (ASYS Hitech GmbH, Austria). Cell viability was presented as a percent of MTT reduced in treated cells versus control cells. The relative MTT level (%) was calculated as [A]/[B] × 100, where [A] is the absorbance of the test sample, and [B] is the absorbance of the control sample. The IC50 value was estimated using CompuSyn version 1.0.

[2] = tested on: SW480 cells (human primary colon cancer); experiment: MTT assay, SW480 cells; assay type: cell-based; conditions: for IC50: Homo sapiens, SW480, MTT, 72 h, mean ± SD; for effectiveness against SW480 cells (in words): based on IC50, MTT 72 h
Description: as §1, §2

[3] = tested on: SW620 cells (human metastatic colon cancer); experiment: MTT assay, SW620 cells; assay type: cell-based; conditions: SW-620, 72 h, mean ± SD
Description: as §1, §2

[4] = tested on: HaCaT cells (human immortal keratinocyte); experiment: MTT assay, HaCaT normal cells; assay type: cell-based; conditions: for IC50: Homo sapiens, HaCaT, MTT, 72 h, mean ± SD, normal cells
Description: as §1, §2

[5] = tested on: HMEC-1 cells (human immortal microvascular endothelial cells); experiment: MTT assay, HMEC-1 normal cells; assay type: cell-based; conditions: 72 h, mean ± SD
Description: Primary and metastatic colon cancer (SW480, SW620), metastatic prostate cancer (PC3), and human immortal keratinocyte (HaCaT) cell lines and immortal microvascular endothelial cells (HMEC-1) were obtained from the American Type Culture Collection (ATCC, Rockville, USA) and cultured in recommended medium, namely, MEM (Biowest SAS, France) for the SW480 and SW620 cells, RPMI 1640 (Biowest SAS, Nuaillé, France) for PC3, DMEM (Biowest SAS, France) for HaCaT and MCDB 131 (PAN BioTech, Aidenbach, Germany) for HMEC-1. The SW480 and SW620 cell lines were initiated by A. Leibovitz et al. and derived from a human primary colon adenocarcinoma and lymph node metastasis of the same patient. respectively. PC3 cell cells were initiated from a bone metastasis of a human prostatic adenocarcinoma. […]
Cell viability was estimated using a conversion of 3-(4,5-dimethylthiazol-2-yl)-2,5-diphenyltetrazolium bromide salt (MTT) to insoluble formazan crystals by mitochondrial dehydrogenases, present in living cells. […] The optical density of the dissolved crystals was measured at a wavelength of 570 nm using a UVM 340 reader (ASYS Hitech GmbH, Austria). […] The relative MTT level (%) was calculated as [A]/[B] × 100, where [A] is the absorbance of the test sample, and [B] is the absorbance of the control sample. […]

[6] = target: T1, E. coli TP (thymidine phosphorylase, TP/PD-ECGF) (Escherichia coli, UniProt P07650); experiment: Thymidine phosphorylase inhibition; assay type: biochemical; conditions: 100 µM screening concentration
T1 construct: purchased Sigma T6632
T1 sequence (P07650 whole entry): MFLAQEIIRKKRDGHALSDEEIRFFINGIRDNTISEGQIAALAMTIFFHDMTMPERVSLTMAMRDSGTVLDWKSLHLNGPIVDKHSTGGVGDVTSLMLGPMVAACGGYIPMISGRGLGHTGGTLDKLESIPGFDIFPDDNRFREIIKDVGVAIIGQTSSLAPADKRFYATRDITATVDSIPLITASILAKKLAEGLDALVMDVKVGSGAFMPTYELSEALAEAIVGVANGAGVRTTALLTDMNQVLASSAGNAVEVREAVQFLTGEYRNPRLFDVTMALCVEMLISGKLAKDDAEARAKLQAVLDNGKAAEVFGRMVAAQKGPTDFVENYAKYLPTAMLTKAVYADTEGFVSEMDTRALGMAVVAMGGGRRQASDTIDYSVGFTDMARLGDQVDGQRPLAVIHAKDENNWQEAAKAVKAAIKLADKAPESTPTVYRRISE
Procedure: TP/PD-ECGF (E. coli TP (Sigma T6632)) activity was determined by measuring the absorbance at 290 nm spectrophotometrically, according to the manufacturer′s procedure [25]. Briefly the reaction mixture of 145 µL of potassium phosphate buffer (pH 7.4), 20 µL of 1.5 mM Thymidine 50 monophosphate solution as substrate, and 30 µL of an enzyme (E. coli TP, 0.05 and 0.002 U) was incubated with 5 µL of test materials for 10 min at 25 °C in a 96-well, flat bottom microplate (200 µL). Readings were taking by a microplate reader (SpectraMax Plus384, USA) at 290 nm. The readings were taken continuously after 10, 20, and 30 min by a microplate reader. All assays were performed in triplicate.

human erythrocytes = experiment: Determination of hemolytic activity; assay type: cell-based; conditions: 10^−6 or 10^−5 M, 37 °C, 30 min, PBS
Procedure: The hemolysis experiment was performed according to the previous report and was approved by the Bioethics Commission at the Lower Silesian Medical Chamber (1/PNHAB/2018). Freshly isolated human erythrocytes were incubated with compound 4 dissolved in DMSO (final concentration of 10^−6 or 10^−5 M) in PBS buffer at 37 °C for 30 min. The samples were then centrifuged and the absorbance of hemoglobin in the supernatants was measured at 540 nm. Additionally, negative (erythrocytes in PBS buffer), positive (erythrocytes in distilled water), and DMSO controls were also performed.

[7] = tested on: panel of 60 human cancer cell lines; design: method as in PMID 33387732; conditions: dose of 10 µM ref 14; cited from earlier work

| Structure (SMILES) | IC50 [1] [µM] | IC50 [2] [µM] | IC50 [3] [µM] | IC50 [4] [µM] | melting point [°C] | growth-inhibitory potency against PC3 (in words) ([1]; MTT 72 h) | effectiveness against SW480 cells (in words) [2] | IC50 [5] [µM] | inhibition of thymidine phosphorylase activity [6] [%] | cytotoxic effect on HaCaT (in words) ([4]; 72-h exposure) | hemolytic activity against human red blood cells (human erythrocytes) | growth inhibition (in words) [7] |
| --- | --- | --- | --- | --- | --- | --- | --- | --- | --- | --- | --- | --- |
| CC(=O)c1ccc(N2CCN(CCCCn3c(=O)c(Br)cn4c5c(=O)n(C)c(=O)n(C)c5nc34)CC2)cc1 [Compound 14, 9-(4-(4-(4-Acetylphenyl)piperazin-1-yl)butyl)-7-bromo-1,3-dimethylpyrimido[2,1-f]purine-2,4,8(1H,3H,9H)-trione] | 91 ± 5.86 | > 200 | > 200 | 96.5 ± 4.93 | – | – | – | – | – | – | – | – |
| CC(=O)c1ccc(N2CCN(CCCCCn3c(=O)ccn4c5c(=O)n(C)c(=O)n(C)c5nc34)CC2)cc1 [Compound 13, 9-(5-(4-(4-Acetylphenyl)piperazin-1-yl)pentyl)-1,3-dimethylpyrimido[2,1-f]purine-2,4,8(1H,3H,9H)-trione] | 94.2 ± 8.36 | > 200 | > 200 | 126 ± 14.3 | – | – | – | – | – | – | – | – |
| CC(=O)c1ccc(N2CCN(CCCCn3ccn4c5c(=O)n(C)c(=O)n(C)c5nc34)CC2)cc1 [Compound 9, 8-(4-(4-(4-Acetylphenyl)piperazin-1-yl)butyl)-1,3-dimethyl-1H-imidazo[2,1-f]purine-2,4(3H,8H)-dione] | 101 ± 15.4 | 153 ± 11.3 | 145 ± 3.76 | 72.8 ± 6.08 | 252 to 253 | – | – | – | – | – | – | – |
| CC(=O)c1ccc(N2CCN(CCCCCN3C(=O)NC4(CCc5ccccc54)C3=O)CC2)cc1 (racemic) [Compound 2, (R,S)-1-(5-(4-(4-Acetylphenyl)piperazin-1-yl)pentyl)-2′,3′-dihydrospiro[imidazolidine-4,1′-indene]-2,5-dione] | 36.2 ± 4.98 | 40.7 ± 3.54 | 43.1 ± 4.41 | 22.6 ± 2.69 | 155.3 to 156.2 | moderate growth-inhibitory potency | effective | – | – | – | – | – |
| CC(=O)c1ccc(N2CCN(CCCCN3C(=O)NC4(CCCc5ccccc54)C3=O)CC2)cc1 (racemic) [Compound 3, (R,S)-1-(4-(4-(4-Acetylphenyl)piperazin-1-yl)butyl)-3′,4′-dihydro-2′H-spiro[imidazolidine-4,1′-naphthalene]-2,5-dione] | 64.5 ± 6.76 | 129 ± 10.8 | 104 ± 7.36 | 114 ± 8.93 | 168.8 to 170.2 | – | – | – | – | – | – | – |
| CC(=O)c1ccc(N2CCN(CCCCn3c(C)cn4c5c(=O)n(C)c(=O)n(C)c5nc34)CC2)cc1 [Compound 10, 8-(4-(4-(4-Acetylphenyl)piperazin-1-yl)butyl)-1,3,7-trimethyl-1H-imidazo[2,1-f]purine-2,4(3H,8H)-dione] | 86.1 ± 9.85 | > 200 | 131 ± 12.6 | 96.1 ± 5.32 | – | – | – | – | – | – | – | – |
| CC(=O)c1ccc(N2CCN(CCCCCN3C(=O)NC4(Cc5ccccc5C4)C3=O)CC2)cc1 [Compound 6, (R,S)-1-{5-[4-(4-Acetylophenyl)piperazyn-1-yl]pentyl}-1′,3′-dihydro-2H,5H-spiro[imidazolidine-4,2′-indene]-2,5-dione] | 95.1 ± 8.4 | 53.7 ± 7.78 | 78.3 ± 4.76 | 159 ± 14.1 | 157.4 to 157.7 | – | effective | – | – | – | – | – |
| CC(=O)c1ccc(N2CCN(CCCCCn3ccn4c5c(=O)n(C)c(=O)n(C)c5nc34)CC2)cc1 [Compound 11, 8-(5-(4-(4-Acetylphenyl)piperazin-1-yl)pentyl)-1,3-dimethyl-1H-imidazo[2,1-f]purine-2,4(3H,8H)-dione] | 60.28 ± 0.4 | > 200 | 97.7 ± 10.7 | 58.6 ± 4.91 | – | – | – | – | – | – | – | – |
| COc1cccc2c1C(=O)c1c(O)c3c(c(O)c1C2=O)C[C@@](O)(C(=O)CO)C[C@@H]3O[C@H]1C[C@H](N)[C@H](O)[C@H](C)O1 [Doxorubicin, reference compound] | 0.59 ± 0.02 | 0.29 ± 0.08 | – | 0.24 ± 0.03 | – | – | – | – | – | – | – | – |
| CC(=O)c1ccc(N2CCN(CCCCN3C(=O)NC4(Cc5ccccc5C4)C3=O)CC2)cc1 [Compound 5, (R,S)-1-{4-[4-(4-Acetylophenyl)piperazyn-1-yl]butyl}-1′,3′-dihydro-2H,5H-spiro[imidazolidine-4,2′-indene]-2,5-dione] | > 200 | 102 ± 2.37 | > 200 | > 200 | 213.8 to 214.9 | – | – | – | – | – | – | – |
| CC(=O)c1ccc(N2CCN(CCCCn3c(=O)ccn4c5c(=O)n(C)c(=O)n(C)c5nc34)CC2)cc1 [Compound 12, 9-(4-(4-(4-Acetylphenyl)piperazin-1-yl)butyl)-1,3-dimethylpyrimido[2,1-f]purine-2,4,8(1H,3H,9H)-trione] | 71.9 ± 9.85 | > 200 | 169 ± 22.9 | 83.9 ± 4.2 | – | – | – | – | – | – | – | – |
| CC(=O)c1ccc(N2CCN(CCCCCN3C(=O)NC4(CCCc5ccccc54)C3=O)CC2)cc1 (racemic) [Compound 4, (R,S)-1-(5-(4-(4-Acetylphenyl)piperazin-1-yl)pentyl)-3′,4′-dihydro-2′H-spiro[imidazolidine-4,1′-naphthalene]-2,5-dione] | 20.6 ± 3.35 | 16.8 ± 2.37 | 12.9 ± 3.16 | 36.8 ± 5.32 | 134.3 to 135.1 | – | effective | 149 ± 10.6 | 21.21 | no significant cytotoxic effect | no hemolytic activity | – |
| CC(=O)c1ccc(NC(=O)Cn2c(Br)nc3c2c(=O)n(C)c(=O)n3C)cc1 [Compound 22e, N-(4-acetylphenyl)-2-[8-bromo-1,3-dimethyl-2,6-dioxo-2,3-dihydro-1H-purin-7(6H)-yl]acetamide] | – | – | – | – | – | – | – | – | – | – | – | moderate growth inhibition |
| CC(=O)c1ccc(N2CCN(CCCCN3C(=O)NC4(CCc5ccccc54)C3=O)CC2)cc1 (racemic) [Compound 1, (R,S)-1-(4-(4-(4-Acetylphenyl)piperazin-1-yl)butyl)-2′,3′-dihydrospiro[imidazolidine-4,1′-indene]-2,5-dione] | 57.6 ± 5.86 | 54.2 ± 3.89 | 67 ± 5.24 | 41.8 ± 7.62 | 180.2 to 181.3 | – | effective | – | – | – | – | – |
